Data published in PMC10611374, “Characterization of the Hemolytic Activity of Mastoparan Family Peptides from Wasp Venoms” (Toxins, 2023).
In brackets after ≈: the same amount, converted by molar mass. Several values for one entry are separate records, joined by “and”; a condition that tells them apart may be missing. Identical values can stand only once. Like-named read-outs stand apart in the source and are kept apart here. Ends that are not written are not given here.

Legend:
[1] = tested on: human red blood cells (HRBCs); assay: Hemolytic assay on human red blood cells; format: cell-based; conditions: for HRBC Hemolysis (hemolysis rate at 320 μg/mL) / EC50: human red blood cells 5% (v/v) in PBS, 37 °C 1 h, OD 540 nm; for HRBC Hemolysis (hemolysis rate at 320 μg/mL): peptide 320 μg/mL (highest dose), PBS = 0%, mean of three independent experiments; for EC50: four-parameter logistic fit of mean of three independent experiments, '-' = hemolytic activity too low to calculate the EC50; for hemolytic activity on HRBCs, result in words: mutants relative to Protopolybia-MPIII
Method: (§1) Fresh human red blood cells were obtained from healthy donors and collected in a sterile blood collecting vessel covered with sodium citrate (1:9) as the anticoagulating agent. Rat red blood cells were collected from the abdominal aorta in sterile blood-collecting vessels coated with sodium citrate (1:4) after the SD rats were anaesthetized with isoflurane. Then, the cells were washed three times with phosphate-buffered saline via centrifugation (1000× g, 4 °C, 5 min) and prepared in a sterile 96-well polypropylene plate to achieve a final concentration of 5% (v/v). Twofold dilutions of the peptides were prepared in PBS to 100 μL and mixed with an equal volume of HRBCs/RRBCs suspension to final peptide concentrations ranging from 10 to 320 μg/mL. After coincubation at 37 °C for 1 h, the plate was centrifuged (2000× g, 4 °C, 20 min), and 100 μL of supernatant was taken for optical density measurements at 540 nm using a microtiter plate reader (SpectraMax 190). The HRBCs/RRBCs were assayed with PBS (blank) or 1% Triton X-100 (positive control) to represent 0% and 100% hemolysis, respectively. The percent hemolysis was calculated according to the following equation: Hemolysis Rate (%) = 100% × (Amastoparans − Ablank)/(ATriton X-100 − Ablank). Three independent experiments were performed, and the mean hemolysis rate at each dose was used to calculate the EC50 in Sigmaplot software.
(§2) Statistical analysis was performed with GraphPad Prism software (version 5.0, San Diego, CA, USA). A two-tailed Student’s t-test was used to calculate the statistical probability in this study. Differences in the data were considered to be statistically significant when the p value was equal to or less than 0.05. The curve of hemolysis induced by wasp mastoparans was generated in SigmaPlot 12.5 software, and the EC50 was calculated according to the equation (Four Parameter Logistic Curve): y = min + (max − min)/(1 + (x/EC50)^−Hillslope). The heat map of hemolytic activity of mastoparan peptide was analysed in R software which is based on the value of log2(EC50).

[2] = tested on: rat red blood cells (RRBCs); assay: Hemolytic assay on rat red blood cells; format: cell-based, SD rats; conditions: for RRBC Hemolysis (hemolysis rate at 320 μg/mL) / EC50: rat red blood cells 5% (v/v) in PBS, 37 °C 1 h, OD 540 nm; for RRBC Hemolysis (hemolysis rate at 320 μg/mL): peptide 320 μg/mL (highest dose), PBS = 0%, mean of three independent experiments; for EC50: four-parameter logistic fit of mean of three independent experiments, '-' = hemolytic activity too low to calculate the EC50
Method: as §1, §2

E. coli = conditions: reported antibacterial activity; reference per peptide in Table 3; cited from earlier work
S. aureus = conditions: reported antibacterial activity; reference per peptide in Table 3; cited from earlier work
B. subtilis = conditions: reported antibacterial activity; reference per peptide in Table 3; cited from earlier work
[3] = tested on: Escherichia coli and Staphylococcus aureus/Bacillus subtilis; parameters: method as in Table 3 refs 12, 13, 18-30; conditions: both on Escherichia coli and Staphylococcus aureus/Bacillus subtilis; reported values, ref Table 3 refs 12, 13, 18-30; cited from earlier work
[4] = peptide 10-320 μg/mL twofold dilutions, 1% Triton X-100 = 100%, read-out: HRBC EC50 (hemolytic activity)
[5] = peptide 10-320 μg/mL twofold dilutions, 1% Triton X-100 = 100%, read-out: RRBC EC50 (hemolytic activity)
[6] = Table 2 series, read-out: HRBC EC50 (hemolytic activity), Protopolybia-MPIII and mutants
[7] = Table 2 series, read-out: RRBC EC50 (hemolytic activity), Protopolybia-MPIII and mutants

Compound	HRBC Hemolysis (hemolysis rate at 320 μg/mL) ([1]; 1% Triton X-100 = 100%)	EC50 [1, 4]	RRBC Hemolysis (hemolysis rate at 320 μg/mL) ([2]; 1% Triton X-100 = 100%)	EC50 [2, 5]	MIC E. coli (E. coli)	MIC S. aureus (S. aureus)	MIC B. subtilis (B. subtilis)	hemolytic activity on HRBCs, result in words [1]	hemolytic activity on RRBCs, result in words [2]	MIC (antibacterial activity, summary) [3]	EC50 [1, 6]	EC50 [2, 7]	EC50 ([1]; peptide 10-320 μg/mL twofold dilutions, 1% Triton X-100 = 100%, listed as Polybia-MPII, read-out: HRBC EC50 (hemolytic activity))
INMKASAAVAKKLL-NH2 [MP-VB1]	0%	> 400 µM	7%	> 400 µM	10.3 µM	2.5 µM							
INLKAIAAFAKKLL-NH2 [Mastoparan-T(D)]	15%	> 400 µM	19%	> 400 µM	5.3 µM	15.9 µM							
CC[C@H](C)[C@H](NC(=O)[C@H](CO)NC(=O)[C@H](CCCCN)NC(=O)[C@H](CC(C)C)NC(=O)[C@H](CCCCN)NC(=O)[C@@H](N)CC(C)C)C(=O)N[C@H](C(=O)N[C@@H](CO)C(=O)N[C@@H](Cc1c[nH]c2ccccc12)C(=O)N[C@@H](C)C(=O)N[C@@H](CCCCN)C(=O)N[C@@H](CCCCN)C(=O)N[C@H](C(=O)N[C@@H](CC(C)C)C(N)=O)C(C)C)C(C)C [Mastoparan-B]	22%	> 400 µM	19%	> 400 µM	10 µM (≈ 16.1 µg/mL)	60 µM (≈ 96.7 µg/mL)							
LKLMGIVKKVLGAL-NH2 [EMP-EM1]	21%	> 400 µM	7%	> 400 µM	7 µM	34 µM	68 µM						
INLKGLIKKVASLLT-OH [EpVP1]	9%	> 400 µM	0%	> 400 µM	25 µM	100 µM	5 µM	almost no hemolytic activity	almost no hemolytic activity				
KDLHTVVSAILQAL-NH2 [OdVP3a]	24%	> 400 µM	27%	> 400 µM	>200 µM	>200 µM	10 µM						
INWKKIAEVGGKILSSL-NH2 [Dominulin A]	4%	≥ 400 µM	0%	> 400 µM	1 µM		4 µM			≤ 10 µM			
LNLKGLIKKVASLLN-OH [Eumenitin-R]	5%	> 400 µM	7%	> 400 µM	30 µM	60 µM		almost no hemolytic activity	almost no hemolytic activity				
INWKKIAEIGKQVLSAL-NH2 [Dominulin B]	8%	≥ 400 µM	0%	> 400 µM	1 µM		4 µM			≤ 10 µM			
LNLKGIFKKVASLLT-OH [Eumenitin]	6%	> 400 µM	4%	> 400 µM	6 µM	6 µM	>60 µM	almost no hemolytic activity	almost no hemolytic activity				
INLKAIAALAKKLL-NH2 [Mastoparan-M]	18%	> 400 µM	28%	> 400 µM	13.5 µM	3.38 µM							
INWKKMAATALKMI-NH2 [Parapolybia-MP]	32%	≥ 400 µM and > 400 µM and 306 µM	22%										
IKWKAILDAVKKVL-NH2 [Mastoparan-A]	7%		56%	183 ± 3.4 µM									
INWLKLGKAVSDIL-NH2 [Protopolybia-MPIII-9]											167 ± 2.7 µM	161.7 ± 1.3 µM	
INWKGIAAMKKLL-NH2 [Mastoparan-like peptide 12b]	0%	≥ 400 µM	0%	> 400 µM	10 µM	2.5 µM				≤ 10 µM			
INLKALLAVAKKIL-NH2 [Mastoparan-C]	100%		100%	64.4 ± 10.7 µM									
INWLKLGKKILGAL-NH2 [PDD-B]	100%	48.5 ± 3.4 µM	100%	55.6 ± 4.1 µM									
CC[C@H](C)[C@H](NC(=O)[C@H](CC(=O)O)NC(=O)[C@@H](N)Cc1ccccc1)C(=O)N[C@@H](CCSC)C(=O)NCC(=O)N[C@@H](CC(C)C)C(=O)N[C@H](C(=O)N[C@@H](CCCCN)C(=O)N[C@@H](CCCCN)C(=O)N[C@H](C(=O)N[C@@H](C)C(=O)NCC(=O)N[C@@H](C)C(=O)N[C@@H](CC(C)C)C(N)=O)C(C)C)[C@@H](C)CC [EMP-ER]	25%		46%	231 ± 3.7 µM									
INWLKLGKKVSAIL-NH2 [Protopolybia-MP I]	5%	> 400 µM	5%	> 400 µM				almost no hemolytic activity			> 400 µM	> 400 µM	
INWLKLGKKILGAI-NH2 [Pm-R1]	100%	72 ± 8.5 µM	92%	105 ± 2.2 µM									
INWKKIKSIIKAAMN-NH2 [Mastoparan-V1]	9%		16%										
LKLLGIVKKVLGAI-NH2 [EMP-EM2]	8%	> 400 µM	2%	> 400 µM	3 µM	17 µM	68 µM						
INWLKLGKMVIDAL-NH2 [Polybia-MP II]	91%	23.3 ± 1.4 µM	100%	29.1 ± 1.5 µM									≤ 400 µM
